# How the values were obtained:
# Type in all cases: cell-based, murine
# [1] = tested on: MB49-Double KO (MB49 2KO) cell line
# MB49-STING KO cell line = tested on: MB49-STING KO cell line
# MB49 cells [2] = tested on: MB49 cells
# MB49 cells [3] = tested on: MB49 cells; remark: listed apart in the source
Compound,IFN-β production [1],Surface PD-L1 expression [1],PD-L1 and MHC-I surface expression (MB49-STING KO cell line),Type I IFN (IFN-β) production in culture supernatants (MB49 cells [2]),PD-L1 surface expression (MB49 cells [3]),"VAX014-induced IFN-β production, pIRF3/IRF3 ratios and PD-L1/MHC-I surface expression after inhibitor preincubation (MB49-STING KO cell line)"
Cc1ccc2c(=O)c3cccc(CC(=O)O)c3oc2c1C [DMXAA],Complete loss,Complete loss,loss of PD-L1 and MHC-I,stimulated IFN production,able to induce PD-L1 expression,
CC(C)c1ccc2oc3nc(N)c(C(=O)O)cc3c(=O)c2c1 [Amlexanox],,,,,,nearly to baseline conditions of the untreated control

# — patent publication US20250339518A1 (priority 2023, published 2025)
